Tested on: SD rats in a low-pressure low-oxygen environment
Assay: Rat high altitude model in a low-pressure low-oxygen cabin (380 mmHg, simulated altitude of 5,500 meters): cardio-pulmonary function
Format: in vivo
Conditions: twice every day for 14 days, compared with the model group; for mean pulmonary arterial pressure (mPAP): P<0.05
Method: 40 SD rats (about 200 g, male, clean) are purchased from Beijing Vital River Laboratory Animal Technology Co. Ltd and have the license number of SCXK(Jing)2016-0006. The SD rats are fed in a low-pressure oxygen cabin, and regularly fed with a complete nutritional feed under the conditions of the room temperature of 22 to 25° C. and the humidity of 30% to 50%.
Solvent configuration: 20% of HP-β-CD and 80% of double distilled water, and pH=8.
A blank control group: normal-pressure normal-oxygen feeding
A model group: a low-pressure low-oxygen cabin, and intragastric administration of a solvent
An experimental group A: a low-pressure low-oxygen cabin, and intragastric administration of sc0253 (5 mg/kg) as well as a solvent
An experimental group B: a low-pressure low-oxygen cabin, and intragastric administration of sc0253 (10 mg/kg) as well as a solvent
40 rats are randomly divided into four groups, and each group includes 10 rats. 3 groups are placed into an experiment module, the pressure inside the module is regulated to 380 mmHg, a high altitude environment with an altitude of 5,500 meters is simulated, the experiment module is opened for 1 hour every day so as to add feed and water for animals and carry out corresponding medicine treatment, meanwhile, the environment where the rats are positioned are kept alternate day and night according to a ratio of 12h:12h, and after 14 days, intragastric administration is respectively carried out in which the solvent (the model group), the sc0253 (5 mg/kg) and the solvent (the experimental group A) or the sc0253 (10 mg/kg) and the solvent (the experimental group B) are respectively applied, and the operation is carried out twice every day and continued for 14 days. Rats in the fourth group are placed in the same room to be fed in the normal-pressure normal-oxygen environment (the blank control group).
3% pentobarbital sodium (0.2 mL/100 g) is intraperitoneally injected to anesthetize the rats, and ultrasonic detection is carried out. The following ultrasonic data is recorded: right ventricular ejection fraction (RVEF); and right ventricular fractional shortening (RVFS). Then the anesthetized rats are fixed on an operating table in a supine position mode, tracheotomy is carried out, a breathing machine is connected, thoracotomy is carried out to expose the hearts, a catheter is inserted into each right ventricle, right heart catheterization is carried out, and the right ventricular systolic pressure is recorded. Then each catheter is slowly pushed forwards, and can reach a corresponding pulmonary artery through a corresponding right ventricular outflow tract, the pressure waveform of a monitor is observed, and the mean pulmonary arterial pressure mPAP is recorded. The rats are executed, the hearts are taken out, the atrial tissue and attached fat are removed, left and right ventricles are separated, moisture is sucked up by filter paper, the weights of the right ventricles and the left ventricles are respectively weighed, and (RV/(LV+IS)) is calculated.
All the data is represented by x±s, comparison among the groups is single factor analysis of variance, when P<0.05, it represents that the difference has a statistical significance, and statistical treatment is carried out by adopting an SPSS19.0 software package.

[1] = experimental group B: sc0253 10 mg/kg intragastric, ultrasonic detection, P<0.01

In the case of O=C(O)COCC1(F)CCN(c2cncc(N(c3ccccc3)c3ccc(F)cn3)n2)CC1 [sc0253], the “mean pulmonary arterial pressure (mPAP)” value (experimental group A: sc0253 5 mg/kg intragastric) is reported as “obviously reduced”, the “right ventricular hypertrophy index RV/(LV+OS)” value (experimental group B: sc0253 10 mg/kg intragastric, P<0.01) is reported as “obviously reduced” and the “mean pulmonary arterial pressure (mPAP)” value (experimental group B: sc0253 10 mg/kg intragastric) is reported as “obviously reduced”. The “right ventricular ejection fraction (RVEF)” value [1] was “obviously increased” and the “right ventricular fractional shortening (RVFS)” value [1] was “obviously increased”.

Source: patent publication US20210338665A1, “MEDICAL USE OF PROSTACYCLIN RECEPTOR AGONIST” (CHINESE PLA GENERAL HOSPITAL, priority 2018, published 2021)
